The record followed here is patent publication US20140187556A1, “ANTI-AMYLOID COMPOUNDS AND METHODS” (Treventis Corporation, priority 2011, published 2014).

For one data set, the target named is T1, Aβ40 (Homo sapiens, UniProt P05067).
T1 construct: pre-treated Aβ40 (40 μM in 20 mM Tris, pH 7.4)
The data set can be described thus: Thioflavin T (ThT) Aβ aggregation assay. It counts as biochemical. To be noted: 20 μM Aβ40, 37 degrees C. A digest of the protocol: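 Aβ40 was HFIP-pretreated to remove preformed aggregates; 20 µM Aβ40 incubated with compound and 4 µM ThT in 20 mM Tris pH 7.4, 150 mM NaCl, 1% DMSO at 37 °C. Fluorescence (ex 450/em 480 nm) read every 15 min after shaking; inhibition judged by attenuated fluorescence rise versus DMSO controls.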

The nature of data set [1]: Metabolic stability in mouse liver microsomes. The class given is in vitro ADME. To be noted: 1 μM compound, 0.5 mg/mL microsomal protein, 1 mM NADPH. On the procedure: This assay is used to determine the percent remaining and intrinsic clearance of a test compound incubated with pooled mouse liver microsomes in the presence of NADPH. Further details on this method may be found in Jeffrey P, et al., Utility of metabolic stability screening: comparison of in vitro and in vivo clearance. enobiotica. 2001 August-September; 31(8-9):591-8 and Lin J H, et al., Role of pharmacokinetics and metabolism in drug discovery and development. Pharmacol Rev. 1997; 49(4):403-49; each of which is hereby incorporated by reference. Test compound was formulated in 300 μL of DMSO at 10 mM and was diluted to 1 μM with final concentration of organic solvent <0.25% for the experiment. Pooled liver microsomes were prepared from male mice, with 1 mM NADPH. Test compound was incubated at 37 degrees Celsius in buffer containing 0.5 mg/mL microsomal protein; the reaction was initiated by adding cofactors and sampled at 0, 10, 20, 30, and 60 minutes. A positive control (5 μM testosterone) was incubated and initiated in parallel for quality control. Samples were analyzed using an LTQ-Orbitrap XL mass spectrometer; HRMS was used to determine the peak area response ratio (peak area corresponding to test compound or control divided by that of an analytical internal standard) without running a standard curve.
Results were reported for selected compounds in the table of Example 1, as % test compound remaining after 60 minutes. Compounds which have less than about 5% remaining are not considered to be metabolically stable in mouse liver microsomes, while compounds with more than about 5% remaining are considered to be metabolically stable in mouse liver microsomes.
A general note: Liver microsomes are vesicles of endoplasmic reticulum, rich in cytochrome P450 enzymes.

Molecules are shown by their SMILES.

T1 sequence (P05067 672-711 limits assumed): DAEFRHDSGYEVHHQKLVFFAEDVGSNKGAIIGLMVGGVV

`O=[N+]([O-])c1ccc(-c2cccc(C(O)C(F)(F)F)c2)cc1NCc1ccccc1` (centres unmarked) [TRV 1140, 1-(3′-(benzylamino)-4′-nitro-[1,1′-biphenyl]-3-yl)-2,2,2-trifluoroethanol]: the IC50 (in general, the midpoint of a concentration-inhibition curve) at Aβ40 was found to be 3.09 ± 0.21 µM. Moreover, the “Stability in mouse liver microsomes (% test compound remaining after 60 min)” value in data set [1] was found to be 34%.
